Source: patent publication US4130559A, “Method for the preparation of 6-aminopenicillinic acid derivatives” (priority 1977, dated 1978)
≈ marks a conversion by molar mass, not a printed value. Read-outs that look alike come from different tables or passages of the source.

Tests used:
[1] = Acid resistance (half-life period); type: physicochemical; conditions: acid ph 1.3, Temperature 37° C, pH 1.3, read-out: τ1/2 half-life period (acid resistance)
Experimental: (§1) All compounds of this group were prepared in the form of sodium salts. Bactericidal activity, degree of hydrolysis with staphylococc penicillinase and acid resistance of the penicillins were determined.

in vivo = conditions: mouse, iv
E.coli O-55 = assay: Minimal bacteriostatic concentration; type: cell-based; conditions: Escherichia coli, O55, read-out: Minimal Bacteriostatic Concentration
Experimental: as §1

Staph. albus = assay: Minimal bacteriostatic concentration; type: cell-based; conditions: sodium salts
Experimental: as §1

Myco smegmatis = assay: Minimal bacteriostatic concentration; type: cell-based; conditions: sodium salts
Experimental: as §1

Vibrion Metschnicoff = assay: Minimal bacteriostatic concentration; type: cell-based; conditions: Vibrion Metschnicoff; sodium salts; read-out: Minimal Bacteriostatic Concentration
Experimental: as §1

Strept. pyrogenes = assay: Minimal bacteriostatic concentration; type: cell-based; conditions: sodium salts
Experimental: as §1

B.Subtitis ATCC6633 = assay: Minimal bacteriostatic concentration; type: cell-based; conditions: sodium salts
Experimental: as §1

Prot.vulgaris = assay: Minimal bacteriostatic concentration; type: cell-based; conditions: Proteus vulgaris, sodium salts
Experimental: as §1

Staph. aureus 209p = assay: Minimal bacteriostatic concentration; type: cell-based; conditions: Staphylococcus aureus, sodium salts
Experimental: as §1

Sh.dysenteriae Flexneri = assay: Minimal bacteriostatic concentration; type: cell-based; conditions: Shigella dysenteriae, read-out: Minimal Bacteriostatic Concentration
Experimental: as §1

[2] = biological target: staphylococc penicillinase (Staphylococcus aureus, UniProt P00807); assay: Hydrolysis/inactivation by staphylococc penicillinase; type: biochemical; conditions: Table 5
Experimental: as §1
The substitution of propoxy radical for iso-radical in this position is not accompanied by areduction of penicillin stability against penicillinase which is not observed in the orto- and para-positions. During the subsequent hours of inactivation the rate of hydrolysis of penicillins slightly increases. However, even when observed in dynamics, their stability against penicillianase still persists during 4-hour-inactivation.

Ps.aeruginosa = assay: Minimal bacteriostatic concentration; type: cell-based; conditions: Pseudomonas aeruginosa, sodium salts
Experimental: as §1

E.typhi = assay: Minimal bacteriostatic concentration; type: cell-based; conditions: read-out: Minimal Bacteriostatic Concentration
Experimental: as §1

staphylococc penicillinase, sequence (P00807 25-281): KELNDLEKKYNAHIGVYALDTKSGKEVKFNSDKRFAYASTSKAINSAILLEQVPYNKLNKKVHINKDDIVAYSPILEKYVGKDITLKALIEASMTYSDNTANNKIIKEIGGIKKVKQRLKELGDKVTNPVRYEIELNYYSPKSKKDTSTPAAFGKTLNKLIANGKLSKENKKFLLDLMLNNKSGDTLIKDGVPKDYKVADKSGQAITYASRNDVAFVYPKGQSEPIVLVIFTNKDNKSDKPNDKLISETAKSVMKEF

SMILES | half-life ([1]; Table 2, cyclopropyl series) [min] | MTD (in vivo) [mg/kg] | half-life ([1]; Table 3, cyclobutyl series) [min] | other results
CC1(C)SC2C(NC(=O)C3(c4ccccc4)CC3)C(=O)N2C1C(=O)O (stereo not drawn) [Compound I (Table 2)] | 9.9 | 1500 |  | 
CC1(C)S[C@@H]2[C@H](NC(=O)C3(c4ccccc4)CCC3)C(=O)N2[C@H]1C(=O)O [Compound I (Table 3)] |  | 1000 | 86.6 | 
COc1ccccc1C1(C(=O)NC2C(=O)N3C2SC(C)(C)C3C(=O)O)CC1 (stereo not drawn) [Compound II (Table 2)] | 5 | 2000 |  | 
COc1ccccc1C1(C(=O)N[C@@H]2C(=O)N3[C@@H]2SC(C)(C)[C@@H]3C(=O)O)CCC1 [Compound II (Table 3)] |  | 500 | 7.7 | 
CCOc1ccccc1C1(C(=O)NC2C(=O)N3C2SC(C)(C)C3C(=O)O)CC1 (stereo not drawn) [Compound III (Table 2)] | 6 | 500 |  | 
CCOc1ccccc1C1(C(=O)N[C@@H]2C(=O)N3[C@@H]2SC(C)(C)[C@@H]3C(=O)O)CCC1 [Compound III (Table 3)] |  | 250 | 19.1 | 
CCCOc1ccccc1C1(C(=O)NC2C(=O)N3C2SC(C)(C)C3C(=O)O)CC1 (stereo not drawn) [Compound IV (Table 2)] | 5.8 | 500 |  | 
CCCOc1ccccc1C1(C(=O)N[C@@H]2C(=O)N3[C@@H]2SC(C)(C)[C@@H]3C(=O)O)CCC1 [Compound IV (Table 3)] |  | 500 | 23 | 
CCCOc1cccc(C2(C(=O)N[C@@H]3C(=O)N4[C@@H]3SC(C)(C)[C@@H]4C(=O)O)CC2)c1 [Compound IX (Table 2)] | 14.5 | 1500 |  | 
CCCOc1cccc(C2(C(=O)N[C@@H]3C(=O)N4[C@@H]3SC(C)(C)[C@@H]4C(=O)O)CCC2)c1 [Compound IX (Table 3)] |  | 250 | 20.1 | 
CC(C)Oc1ccccc1C1(C(=O)NC2C(=O)N3C2SC(C)(C)C3C(=O)O)CC1 (stereo not drawn) [Compound V (Table 2)] | 6 | 500 |  | 
CC(C)Oc1ccccc1C1(C(=O)N[C@@H]2C(=O)N3[C@@H]2SC(C)(C)[C@@H]3C(=O)O)CCC1 [Compound V (Table 3)] |  | 250 | 18.6 | 
CCCCOc1ccccc1C1(C(=O)NC2C(=O)N3C2SC(C)(C)C3C(=O)O)CC1 (stereo not drawn) [Compound VI (Table 2)] | 5.2 | 500 |  | 
CCCCOc1ccccc1C1(C(=O)N[C@@H]2C(=O)N3[C@@H]2SC(C)(C)[C@@H]3C(=O)O)CCC1 [Compound VI (Table 3)] |  | 1000 | 24.9 | 
COc1cccc(C2(C(=O)NC3C(=O)N4C3SC(C)(C)C4C(=O)O)CC2)c1 (stereo not drawn) [Compound VII (Table 2)] | 7.2 | 1500 |  | 
COc1cccc(C2(C(=O)N[C@@H]3C(=O)N4[C@@H]3SC(C)(C)[C@@H]4C(=O)O)CCC2)c1 [Compound VII (Table 3)] |  | 1500 | 56.9 | 
CCOc1cccc(C2(C(=O)NC3C(=O)N4C3SC(C)(C)C4C(=O)O)CC2)c1 (stereo not drawn) [Compound VIII (Table 2)] | 7.3 | 1500 |  | 

SMILES | half-life ([1]; Table 2, cyclopropyl series) [min] | MTD (in vivo) [mg/kg] | half-life ([1]; Table 3, cyclobutyl series) [min] | other results
CCOc1cccc(C2(C(=O)N[C@@H]3C(=O)N4[C@@H]3SC(C)(C)[C@@H]4C(=O)O)CCC2)c1 [Compound VIII (Table 3)] |  | 1500 | 23.8 | 
CC(C)Oc1cccc(C2(C(=O)N[C@@H]3C(=O)N4[C@@H]3SC(C)(C)[C@@H]4C(=O)O)CC2)c1 [Compound X (Table 2)] | 10.5 | 500 |  | 
CC(C)Oc1cccc(C2(C(=O)N[C@@H]3C(=O)N4[C@@H]3SC(C)(C)[C@@H]4C(=O)O)CCC2)c1 [Compound X (Table 3)] |  | 500 | 17.2 | 
CCCCOc1cccc(C2(C(=O)NC3C(=O)N4C3SC(C)(C)C4C(=O)O)CCCC2)c1 (stereo not drawn) [Compound XI (Table 1)] |  | 2000 |  | half-life ([1]; Table 1, cyclopentyl series): 278 min; MIC (E.coli O-55): 125 µg/mL (≈ 271 µM); MIC (Staph. albus): 0.19 µg/mL; MIC (Myco smegmatis): > 500 µg/mL; MIC (Vibrion Metschnicoff): 15.6 µg/mL; MIC (Strept. pyrogenes): 0.39 µg/mL; MIC (B.Subtitis ATCC6633): 1.56 µg/mL; MIC (Prot.vulgaris): 125 µg/mL; MIC (Staph. aureus 209p): 0.39 µg/mL; MIC (Sh.dysenteriae Flexneri): 125 µg/mL (≈ 271 µM); Quantity of inactivated units of compounds under the action of 1 unit of staphylococc penicillinase [2]: 11.2 units
CCCCOc1cccc(C2(C(=O)N[C@@H]3C(=O)N4[C@@H]3SC(C)(C)[C@@H]4C(=O)O)CC2)c1 [Compound XI (Table 2)] | 6.2 | 250 |  | 
CCCCOc1cccc(C2(C(=O)N[C@@H]3C(=O)N4[C@@H]3SC(C)(C)[C@@H]4C(=O)O)CCC2)c1 [Compound XI (Table 3)] |  | 1000 | 46.6 | 
COc1ccc(C2(C(=O)NC3C(=O)N4C3SC(C)(C)C4C(=O)O)CCCC2)cc1 (stereo not drawn) [Compound XII (Table 1)] |  | 2000 |  | half-life ([1]; Table 1, cyclopentyl series): 163 min; MIC (E.coli O-55): 125 µg/mL (≈ 299 µM); MIC (Staph. albus): 0.19 µg/mL; MIC (Myco smegmatis): > 500 µg/mL; MIC (Vibrion Metschnicoff): 0.48 µg/mL; MIC (Strept. pyrogenes): 0.048 µg/mL; MIC (B.Subtitis ATCC6633): 0.24 µg/mL; MIC (Ps.aeruginosa): > 500 µg/mL; MIC (Prot.vulgaris): 62.5 µg/mL; MIC (E.typhi): 7.8 µg/mL (≈ 18.6 µM); MIC (Staph. aureus 209p): 0.19 µg/mL; MIC (Sh.dysenteriae Flexneri): 31.2 µg/mL (≈ 74.5 µM); Quantity of inactivated units of compounds under the action of 1 unit of staphylococc penicillinase [2]: 40.3 units
COc1ccc(C2(C(=O)N[C@@H]3C(=O)N4[C@@H]3SC(C)(C)[C@@H]4C(=O)O)CC2)cc1 [Compound XII (Table 2)] | 7.3 | 2000 |  | 
COc1ccc(C2(C(=O)N[C@@H]3C(=O)N4[C@@H]3SC(C)(C)[C@@H]4C(=O)O)CCC2)cc1 [Compound XII (Table 3)] |  | 1500 | 10.7 | 
CCOc1ccc(C2(C(=O)NC3C(=O)N4C3SC(C)(C)C4C(=O)O)CCCC2)cc1 (stereo not drawn) [Compound XIII (Table 1), 1-(n-Ethoxyphenyl)Cyclopentyl-1-Penicillin] |  | 1500 |  | half-life ([1]; Table 1, cyclopentyl series): 99.2 min; MIC (E.coli O-55): 62.5 µg/mL (≈ 144 µM); MIC (Staph. albus): 0.09 µg/mL; MIC (Myco smegmatis): > 500 µg/mL; MIC (Vibrion Metschnicoff): 0.19 µg/mL; MIC (Strept. pyrogenes): 0.048 µg/mL; MIC (B.Subtitis ATCC6633): 0.24 µg/mL; MIC (Ps.aeruginosa): > 500 µg/mL; MIC (Prot.vulgaris): 62.5 µg/mL; MIC (E.typhi): 7.8 µg/mL (≈ 18 µM); MIC (Staph. aureus 209p): 0.19 µg/mL; MIC (Sh.dysenteriae Flexneri): 31.2 µg/mL (≈ 72.1 µM); Quantity of inactivated units of compounds under the action of 1 unit of staphylococc penicillinase [2]: 24.9 units
CCOc1ccc(C2(C(=O)N[C@@H]3C(=O)N4[C@@H]3SC(C)(C)[C@@H]4C(=O)O)CC2)cc1 [Compound XIII (Table 2)] | 6.7 | 2750 |  | 
CCOc1ccc(C2(C(=O)N[C@@H]3C(=O)N4[C@@H]3SC(C)(C)[C@@H]4C(=O)O)CCC2)cc1 [Compound XIII (Table 3)] |  | 1000 | 190 | 
CCCOc1ccc(C2(C(=O)N[C@@H]3C(=O)N4[C@@H]3SC(C)(C)[C@@H]4C(=O)O)CC2)cc1 [Compound XIV (Table 2)] | 19.4 | 1000 |  | 
CCCOc1ccc(C2(C(=O)N[C@@H]3C(=O)N4[C@@H]3SC(C)(C)[C@@H]4C(=O)O)CCC2)cc1 [Compound XIV (Table 3)] |  | 250 | 27.3 | 
CC(C)Oc1ccc(C2(C(=O)N[C@@H]3C(=O)N4[C@@H]3SC(C)(C)[C@@H]4C(=O)O)CCC2)cc1 [Compound XV (Table 3)] |  | 500 | 60.1 | 
CCCCOc1ccc(C2(C(=O)N[C@@H]3C(=O)N4[C@@H]3SC(C)(C)[C@@H]4C(=O)O)CC2)cc1 [Compound XVI (Table 2)] | 6.1 | 250 |  | 
CCCCOc1ccc(C2(C(=O)N[C@@H]3C(=O)N4[C@@H]3SC(C)(C)[C@@H]4C(=O)O)CCC2)cc1 [Compound XVI (Table 3)] |  | 500 | 25.6 | 
